Read-outs that look alike come from different tables or passages of the source.
Tests used:
[1] = log P (n-octanol/water partition coefficient) of aroma substances; format: physicochemical
Description: [formula] • wherein: • C (n-octanol) is the concentration of the aroma substance in the n-octanol phase; and • C (water) is the concentration of the aroma substance in the water phase. The log K(n-octanol/water) is a dimensionless partition coefficient which indicates the ratio of the concentration of the aroma substance in a two-phase system of n-octanol and water. It is thus a model measure of the polarity or water/fat solubility of the aroma substance. Log P is a common physical parameter and is positive for lipophilic aroma substances and negative for hydrophilic aroma substances. The W parameter is therefore defined as follows: W=log10(SWF)

[2] = Odour threshold concentration in water
Method: The OAV value is defined as a measure of the significance of a specific component in the odour of a sample, for example, a foodstuff. The OAV value is calculated by dividing the concentration of a specific substance in the food (mg/kg) by the concentration threshold value of this substance in the food (mg/kg). If the OAV>1, the concentration of the substance exceeds the odour threshold concentration and the substance then makes a sensorial contribution to the overall profile.
The sensory recovery coefficient (SWF) of an aroma substance is composed of the log P of the aroma substance and the odour threshold concentration of the aroma substance (mg/kg in water) and is defined as follows: […]

| SMILES | logP ([1]; read-out: logP) | logP [1] | Threshold ([2]; odour threshold concentration) | Threshold [2] |
| --- | --- | --- | --- | --- |
| CC(=O)C(C)=O [2,3-butanedione] | -0.508 | – | 54 µg/kg in water | – |
| CCC(=O)C(C)=O [2,3-pentanedione] | 0.159 | – | 5 µg/kg in water | – |
| CC=O [acetaldehyde] | -0.182 | – | – | 63 µg/kg in water |
| CC(=O)O [acetic acid] | – | – | 180000 mg/kg in water | – |
| CCCC(=O)O [butyric acid] | – | – | 1000 µg/kg in water | – |
| CCO [ethanol] | – | – | 52000 mg/kg in water | – |
| CCOC(C)=O [ethyl acetate] | – | – | 3120 µg/kg in water | – |
| CCCCCC(=O)O [hexanoic acid] | 1.81 | – | 3940 µg/kg in water | – |
| CCCCCCO [hexanol] | – | – | 50 µg/kg in water | – |
| CO [methanol] | -0.358 | – | 369828 mg/kg in water | – |
| CCCO [propanol] | – | – | – | 5700 µg/kg in water |

Continued, in another order:

| logP ([1]; read-out: logP) | logP [1] | SMILES | Threshold ([2]; odour threshold concentration) | Threshold [2] |
| --- | --- | --- | --- | --- |
| 1.4 | – | CCC(C)C=O (stereo not drawn) [2-methylbutyraldehyde] | 0.9 µg/kg in water | – |
| 1.44 | – | CC/C=C\CCO [cis-3-hexenol] | – | – |
| 1.49 | – | CCCC(=O)OCC [ethyl butanoate] | 1 µg/kg in water | – |
| 2.41 | – | CCCCCC(=O)OCC [ethyl hexanoate] | 5 µg/kg in water | – |
| – | 2.0901 | CCCCC1CCC(=O)O1 (stereo not drawn) [gamma-octalactone] | 24 µg/kg in water | – |
| 3.19 | – | CC(C)=CCC/C(C)=C/C=O [geranial] | 320 µg/kg in water | – |
| 1.85 | – | CCCCCC=O [hexanal] | 16 µg/kg in water | – |
| 2.74 | – | C=CC(C)(O)CCC=C(C)C (stereo not drawn) [linalool] | 103 µg/kg in water | – |
| 0.484 | – | CCC=O [propanal] | 170 µg/kg in water | – |
